Reference: patent US12502379B2, “Ponesimod for avoiding worsening of fatigue-related symptoms in multiple sclerosis patients” (Vanda Pharmaceuticals Inc., priority 2019, dated 2025)

Tests used:
[1] = Reasons for premature treatment discontinuation; format: in vivo; conditions: ponesimod 20 mg, teriflunomide 14 mg
Experimental: A total of 1468 subjects were screened. Of those, 1133 subjects were randomized (567 to ponesimod 20 mg and 566 to teriflunomide 14 mg) across 162 sites in 28 countries, and 1131 subjects received at least one dose of study drug. The disposition of subjects is summarized in Table 1 and a summary of reasons (primary reason) for treatment discontinuation are shown in Table 2. Overall treatment and study discontinuation were balanced across both treatment arms. A total of 6.5% and 2.5% of the subjects discontinued due to AEs or tolerability related reasons in ponesimod 20 mg and teriflunomide 14 mg, respectively, while 1.9% and 4.3% discontinued due to efficacy related reasons. There were 2 deaths reported during the study—both on teriflunomide 14 mg.

[2] = ALT increase relative to ULN; format: in vivo, human; conditions: ponesimod 20 mg arm, teriflunomide 14 mg arm
[3] = Treatment-emergent adverse events, Safety Set
Experimental: A prospective, multicenter, randomized, double-blind, active controlled, parallel-group, phase III, superiority study was conducted.
The Safety Set (SAF) included all randomized subjects who received at least one dose of study treatment. Subjects were analyzed based on actual treatment taken, not randomized treatment.

[4] = tested on: adult subjects with relapsing MS; test: FSIQ-RMS weekly symptoms score, change from baseline to Week 108; format: in vivo, human; conditions: FSIQ-RMS weekly symptoms score
Text: In some embodiments, the patient-reported outcome questionnaire is the Fatigue Symptoms and Impact Questionnaire—Relapsing Multiple Sclerosis (FSIQ-RMS) (available from Mapi Research Trust). The FSIQ-RMS is an MS specific 20-item PRO measure that comprises 2 domains: one measuring MS symptoms and one measuring MS-related impacts. See Hudgens S, et al., Development and Validation of the FSIQ-RMS: A New Patient-Reported Questionnaire to Assess Symptoms and Impacts of Fatigue in Relapsing Multiple Sclerosis. Value Health. 2019 April; 22 (4): 453-466. doi: 10.1016/j.jval.2018.11.007. Epub 2019 Feb. 21. PubMed PMID: 30975397. With 7 symptom items and 13 impact items (in 3 impacts subdomains: physical, cognitive and emotional, and coping), the FSIQ-RMS is a comprehensive, valid, and reliable measure of fatigue-related symptoms and impacts in RMS patients. FIG. 2B depicts a conceptual framework for the FSIQ-RMS.
(§1) In some embodiments, the patient-reported outcome questionnaire is the symptom domain of the FSIQ-RMS. The FSIQ-RMS symptom domain (FSIQ-RMS-S) consists of seven items assessing fatigue-related symptoms with a recall period of 24 hours measured on an 11-point numeric rating scale; the standardized symptom domain score ranges from 0 to 100 with a higher score indicating greater fatigue. This domain (i.e., section 1 of the questionnaire) is completed on 7 consecutive days.
The patient-reported outcome questionnaire used for the below Examples is the Fatigue Symptoms and Impact Questionnaire-Relapsing Multiple Sclerosis (FSIQ-RMS). The FSIQ-RMS is an MS specific 20-item PRO measure that comprises 2 domains: one measuring MS symptoms (7 items) and one measuring MS-related impacts (13 items). The 7 symptom items and 13 impact items (in 3 impacts subdomains: physical, cognitive and emotional, and coping) are presented below.
For the MS symptoms domain, the FSIQ-RMS asks about a patient's fatigue-related symptoms of relapsing MS over the past 24 hours while doing routine daily activities (e.g., housework, yard work, shopping, working, etc.) for Items 1-6 or while at rest (e.g., reading a book, watching TV, etc.) for Item 7. Patients are asked to select a response on a scale of Oto 10 that best describes their experience and are asked to not skip any questions, with no answers being right or wrong.
Secondary efficacy variables and testing strategy: Four secondary efficacy endpoints were analyzed as per the statistical testing strategy outlined in FIG. 1. • Change from baseline to Week 108 in fatigue-related symptoms as measured by the symptoms domain of the FSIQ-RMS patient-reported outcome [Fatigue] • Cumulative number of combined unique active lesions from baseline to Week 108 on brain MRI [CUALs] • Time to first 12-week confirmed disability accumulation (CDA) from baseline to EOS on Expanded Disability Status Scale (EDSS) [12-week CDA] • Time to first 24-week CDA from baseline to EOS on EDSS [24-week CDA]
as §1, with “The” for “In some embodiments, the patient-reported outcome questionnaire is the symptom domain of the FSIQ-RMS. The”
FSIQ-RMS was completed during the pre-randomization period, at Visits 6, 7, 10, and 12 (Weeks 12, 24, 60, 84), 14 (EOT), and at unscheduled visits due to relapses (R1, R2, etc.) or other unscheduled visits (U1, U2, etc.) as described below. If applicable, FSIQ-RMS was performed at the corresponding visits in the PTOP.
The completion of the FSIQ-RMS during the pre-randomization period was done as follows: At Visit 1 (Screening), subjects who appear eligible based on the assessments made during this visit (but prior to the results from the laboratory assessments are received) were provided with the electronic device containing the FSIQ-RMS. […]

[5] = 12-lead ECG heart rate on Day 1, change from pre-dose; format: in vivo, human
Experimental: As per up-titration regimen, the dose of ponesimod on Day 1 is 2 mg.

[6] = other S1P receptor modulators, for comparison; cited from earlier work
[7] = Day 1 (ponesimod dose 2 mg per up-titration), Safety Set, N = 565 / 566
[8] = Safety Set, ponesimod 20 mg N = 565, teriflunomide 14 mg N = 566
[9] = ponesimod 20 mg, teriflunomide 14 mg
[10] = patients without Gd+T1 lesions at baseline

SMILES: C/C(O)=C(\C#N)C(=O)Nc1ccc(C(F)(F)F)cc1 [Teriflunomide]
- Subjects who discontinued due to AEs or tolerability related reasons [1]: 2.5%
- Proportion of subjects who experienced ALT increase >3×ULN [2]: 8.3%
- Proportion of subjects who experienced ALT increase >8×ULN [2]: 2.1%
- AESI effect on heart rate and rhythm (including hypotension) on Day 1: Subjects with at least one AE [3, 7]: 0.4%
- AESI heart rate and rhythm on Day 1, PT: Atrioventricular block first degree [3, 7]: 0 n
- AESI heart rate and rhythm on Day 1, PT: Bradycardia [3, 7]: 0 n
- AESI heart rate and rhythm on Day 1, PT: Bundle branch block left [3, 7]: 0 n
- AESI heart rate and rhythm on Day 1, PT: Bundle branch block right [3, 7]: 0 n
- AESI heart rate and rhythm on Day 1, PT: Defect conduction intraventricular [3, 7]: 0 n
- AESI heart rate and rhythm on Day 1, PT: Sinus arrhythmia [3, 7]: 0 n
- AESI heart rate and rhythm on Day 1, PT: Sinus bradycardia [3, 7]: 0 n
- Subject with at least one AE (treatment-emergent) [3, 8]: 88.2%
- Subject with at least one AE leading to study drug discontinuation [3, 8]: 6.0%
- Subject with at least one Serious AE [3, 8]: 8.1%
- TEAEs leading to premature discontinuation of study drug, SOC: Eye disorders [3, 8]: 0 n
- TEAEs leading to premature discontinuation of study drug, SOC: Respiratory, thoracic and mediastinal disorders [3, 8]: 0 n
- TEAEs leading to premature discontinuation of study drug, SOC: Vascular disorders [3, 8]: 0 n
- Treatment-emergent AESI: Hepatobiliary disorders/Liver enzyme abnormality [3, 8]: 14.5%
- Treatment-emergent AESI: Hypertension [3, 8]: 9.0%
- Treatment-emergent AESI: Pulmonary events [3, 8]: 2.7%
- TEAE: ALT increased [3, 9]: 9.4%
- TEAE: headache [3, 9]: 12.7%
- TEAE: nasopharyngitis [3, 9]: 16.8%
- TEAE: upper respiratory tract infection [3, 9]: 10.4%
- Change From Baseline to Week 108: Stable or Improved ([4]; patients with baseline fatigue below the median): about 55%
- Change From Baseline to Week 108: Stable or Improved [4, 10]: 57.0%
- Change From Baseline to Week 108: Worsened (≥6.3) [4, 10]: 43.0%
- Change From Baseline to Week 108: Stable or Improved ([4]; patients without Gd+T1 lesions at baseline, listed as teriflunomide): about 57%
- Mean heart rate reduction compared to pre-dose (maximum) ([5]; Day 1, 2-hours post dose, ponesimod arm dose on Day 1 is 2 mg): −1.7 bpm
- Subjects with asymptomatic post-dose HR≤40 bpm ([5]; Day 1, all had pre-treatment HR<55 bpm): none

SMILES: CCCCCCCCc1ccc(CCC(N)(CO)CO)cc1 [fingolimod]
- ECG HR effect: nadir post-dose [6]: ~6 h

SMILES: CCc1cc(/C(C)=N/OCc2ccc(C3CCCCC3)c(C(F)(F)F)c2)ccc1CN1CC(C(=O)O)C1 [siponimod]
- ECG HR effect: nadir post-dose [6]: 3 to 4 h
